Results taken from ChEMBL document CHEMBL1201862, “PubChem BioAssay data set” (2004).
Calls of active or inactive are those of the source. Rule as the data show it: actives have a measured IC50 and inactives only a lower limit.

Target: T1, Apoptotic protease-activating factor 1 (Homo sapiens, UniProt O14727)
T1 sequence (O14727 whole entry): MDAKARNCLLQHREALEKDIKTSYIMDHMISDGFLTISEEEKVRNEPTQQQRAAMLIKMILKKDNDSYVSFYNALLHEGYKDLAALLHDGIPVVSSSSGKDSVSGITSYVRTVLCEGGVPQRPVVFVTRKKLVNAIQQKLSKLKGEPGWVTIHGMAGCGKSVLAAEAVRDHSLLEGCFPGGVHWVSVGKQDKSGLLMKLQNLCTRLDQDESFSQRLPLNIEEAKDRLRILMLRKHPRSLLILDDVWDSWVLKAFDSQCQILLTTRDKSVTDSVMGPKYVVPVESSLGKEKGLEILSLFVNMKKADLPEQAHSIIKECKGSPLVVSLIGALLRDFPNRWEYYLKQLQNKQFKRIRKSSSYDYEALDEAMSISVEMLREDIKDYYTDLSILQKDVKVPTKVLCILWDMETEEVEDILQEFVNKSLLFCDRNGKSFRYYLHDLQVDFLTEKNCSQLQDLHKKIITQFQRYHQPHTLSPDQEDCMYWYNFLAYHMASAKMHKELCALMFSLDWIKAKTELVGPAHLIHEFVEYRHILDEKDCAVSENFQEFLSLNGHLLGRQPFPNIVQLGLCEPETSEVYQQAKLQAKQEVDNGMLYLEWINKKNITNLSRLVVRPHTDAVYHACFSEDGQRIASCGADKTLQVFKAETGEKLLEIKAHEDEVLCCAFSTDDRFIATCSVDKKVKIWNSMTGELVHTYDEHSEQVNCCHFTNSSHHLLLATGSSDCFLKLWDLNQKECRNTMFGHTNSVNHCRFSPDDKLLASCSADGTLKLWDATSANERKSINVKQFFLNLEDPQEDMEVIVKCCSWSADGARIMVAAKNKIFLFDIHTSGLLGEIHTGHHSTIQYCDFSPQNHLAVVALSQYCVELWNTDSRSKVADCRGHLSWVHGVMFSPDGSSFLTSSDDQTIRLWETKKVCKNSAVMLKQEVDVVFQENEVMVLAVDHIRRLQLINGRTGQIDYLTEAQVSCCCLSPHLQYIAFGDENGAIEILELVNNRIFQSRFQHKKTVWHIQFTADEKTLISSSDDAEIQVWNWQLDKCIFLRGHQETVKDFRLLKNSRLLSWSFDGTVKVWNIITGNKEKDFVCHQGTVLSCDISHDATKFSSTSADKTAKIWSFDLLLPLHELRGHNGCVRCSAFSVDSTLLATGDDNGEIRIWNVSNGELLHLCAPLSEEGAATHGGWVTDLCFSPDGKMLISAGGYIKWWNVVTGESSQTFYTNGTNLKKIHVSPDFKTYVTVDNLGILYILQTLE
Format: functional

CCCCCCCCCCOC(=O)C[n+]1c(COc2ccc(C)cc2)n(C)c2ccccc21
IC50: 10.8 µM (active)
